Test results from publication PMC10692101, “3-(4-Hydroxy-3-methoxyphenyl) propionic acid contributes to improved hepatic lipid metabolism via GPR41” (Scientific Reports, 2023).

Experiments:
[1] = target: T1, GPR41 (Mus musculus, UniProt Q3UFD7); experiment: inhibition of forskolin-induced cAMP in doxycycline-inducible mouse GPR41 HEK293 cells; type: cell-based
T1 construct: gene Ffar3; mouse GPR41 cDNA in pcDNA5/FRT/TO, expressed in Flp-In T-Rex HEK 293 cells
T1 sequence (Q3UFD7 1-319): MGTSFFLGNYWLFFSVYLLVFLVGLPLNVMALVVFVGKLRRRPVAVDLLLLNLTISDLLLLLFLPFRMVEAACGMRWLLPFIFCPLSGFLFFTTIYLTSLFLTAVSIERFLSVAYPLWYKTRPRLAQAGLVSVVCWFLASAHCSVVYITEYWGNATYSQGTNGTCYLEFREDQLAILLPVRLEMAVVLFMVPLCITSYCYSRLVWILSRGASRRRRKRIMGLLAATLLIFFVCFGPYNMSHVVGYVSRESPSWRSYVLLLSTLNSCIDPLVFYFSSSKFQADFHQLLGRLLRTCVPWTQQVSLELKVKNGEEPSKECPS

[2] = target: T1, GPR41; experiment: inhibition of forskolin-induced cAMP in doxycycline-inducible mouse GPR41 HEK293 cells; Dox(-) controls inactive; type: cell-based

| SMILES | EC50 [1] [mM] | EC50 [2] [mM] |
| --- | --- | --- |
| COc1cc(/C=C/C(=O)O)ccc1O [HMCA, 4-hydroxy-3-methoxycinnamic acid] | 5.58 |  |
| COc1cc(CCC(=O)O)ccc1O [HMPA, 3-(4-hydroxy-3-methoxyphenyl) propionic acid] |  | 2.36 |
